In patent US20260193293A1, “PEPTIDES CAPABLE OF INHIBITING PROTEIN-PROTEIN INTERACTIONS AT GABAB1A SUBUNIT AND USES THEREOF” (UNIVERSITY OF COPENHAGEN, priority 2022, published 2026):
Read-outs that look alike come from different tables or passages of the source. One block for each molecule: values may come before it. Non-standard residues stand in square brackets, D forms with d. Residues, ends and D or L forms follow the SMILES beside them. NMeW = CN[C@@H](Cc1c[nH]c2ccccc12)C(=O)O; Phe(4-NH2) = Nc1ccc(C[C@H](N)C(=O)O)cc1; 2Nal = N[C@@H](Cc1ccc2ccccc2c1)C(=O)O; NMeD = CN[C@@H](CC(=O)O)C(=O)O; Sar = CNCC(=O)O

Biological target: Sushi domains (SD1/2) protein
Test: Fluorescence polarization (FP) competition assay with AJAP-1probe, calculated Ki
Assay type: binding
Summary of the method: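 Ki values were derived from IC50s (sigmoidal fits, ≥ triplicate), with probe Kd obtained by saturation titration of SD1/2. Peptides displaced a 25 nM TAMRA-labelled probe; polarization read at 530/580 nm in 1% BSA-containing PBS, pH 7.4, room temperature.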

[1] = Table 16, ncAAs incorporated peptides, read-out: Ki (nM) mean ± SEM
[2] = Table 11, deep mutational scanning validation variants of AJAP-1WT, read-out: Ki (nM) mean ± SEM
[3] = Table 6, elongation and truncation scan of PIANP binding epitope, read-out: Ki (nM) mean ± SEM
[4] = Table 8, Ala-, D-amino acids and N-methylation scans of AJAP-1WT, read-out: Ki (nM) mean ± SEM

Molecule: CC[C@H](C)[C@H](NC(=O)[C@H](Cc1ccccc1)NC(=O)[C@H](CCC(=O)O)NC(=O)[C@@H](NC(=O)[C@H](CCC(=O)O)NC(C)=O)[C@@H](C)O)C(=O)N1CCC[C@H]1C(=O)N[C@@H](Cc1c[nH]c2ccccc12)C(=O)NCC(=O)N1CCC[C@H]1C(=O)N[C@H](C(=O)NCC(=O)N[C@@H](CC(=O)O)C(=O)N[C@@H](CCC(=O)O)C(=O)N[C@@H](CC(=O)O)C(N)=O)[C@@H](C)O [ETEFIPWGPTGDED] (Ac-ETEFIPWGPTGDED-NH2)
Ki (Table 11, cells printed in μM, read-out: Ki (nM) mean ± SEM): > 6250 nM

Molecule: CC[C@H](C)[C@H](NC(=O)[C@H](Cc1c[nH]c2ccccc12)NC(=O)[C@H](CC(=O)O)NC(=O)[C@H](CC(=O)O)NC(=O)[C@H](CC(=O)O)NC(=O)[C@H](CCC(=O)O)NC(C)=O)C(=O)N[C@@H](CC(=O)O)C(=O)N[C@@H](Cc1c[nH]c2ccccc12)C(=O)NCC(=O)N1CCC[C@H]1C(=O)N[C@H](C(=O)N[C@@H](CO)C(=O)N[C@@H](CC(=O)O)C(=O)N[C@@H](CC(=O)O)C(=O)N[C@@H](CC(=O)O)C(=O)N[C@@H](Cc1ccc(O)cc1)C(=O)NCC(=O)N[C@@H](CCCNC(=N)N)C(=O)N[C@@H](CCCCN)C(=O)N[C@@H](CCCCN)C(=O)N[C@@H](CCCNC(=N)N)C(=O)N[C@@H](CCCNC(=N)N)C(=O)N[C@@H](CCC(N)=O)C(=O)N[C@@H](CCCNC(=N)N)C(=O)N[C@@H](CCCNC(=N)N)C(=O)N[C@@H](CCCNC(=N)N)C(N)=O)[C@@H](C)O [Peptide 17-Tat] (Ac-EDDDWIDWGPTSDDDYGRKKRRQRRR-NH2)
Ki (CPP tagged peptides overview, SD1/2 binding affinity, mean ± SEM, n ≥ 3, read-out: Ki): 79 ± 1 nM
Ki (Table 14, CPPs tagged peptides, read-out: Ki (nM) mean ± SEM): 78.5 ± 1 nM

Molecule: EDDSDVWW(Aphe)GADTD (Ac-EDDSDVWW[Phe(4-NH2)]GADTD-NH2; SMILES CC(=O)N[C@@H](CCC(=O)O)C(=O)N[C@@H](CC(=O)O)C(=O)N[C@@H](CC(=O)O)C(=O)N[C@@H](CO)C(=O)N[C@@H](CC(=O)O)C(=O)N[C@H](C(=O)N[C@@H](Cc1c[nH]c2ccccc12)C(=O)N[C@@H](Cc1c[nH]c2ccccc12)C(=O)N[C@@H](Cc1ccc(N)cc1)C(=O)NCC(=O)N[C@@H](C)C(=O)N[C@@H](CC(=O)O)C(=O)N[C@H](C(=O)N[C@@H](CC(=O)O)C(N)=O)[C@@H](C)O)C(C)C)
Ki [1]: 102 ± 1 nM

Molecule: CC[C@H](C)[C@H](NC(=O)[C@H](C)NC(=O)[C@H](Cc1c[nH]c2ccccc12)NC(=O)[C@@H]1CCCN1C(=O)[C@H](Cc1ccc(O)cc1)NC(=O)[C@H](CCC(N)=O)NC(=O)[C@H](CO)NC(=O)[C@H](CO)NC(=O)[C@@H]1CCCN1C(C)=O)C(=O)N[C@H](C(=O)N[C@@H](Cc1c[nH]c2ccccc12)C(=O)NCC(=O)N1CCC[C@H]1C(=O)N[C@H](C(=O)N[C@H](C(=O)N[C@@H](CO)C(=O)N[C@@H](CCCNC(=N)N)C(=O)N[C@@H](CCC(=O)O)C(=O)N[C@@H](CC(=O)O)C(=O)NCC(N)=O)C(C)C)[C@@H](C)O)C(C)C (Ac-PSSQYPWAIVWGPTVSREDG-NH2)
Ki [3]: > 62500 nM

Molecule: CC[C@H](C)[C@H](NC(=O)[C@H](C)NC(=O)[C@H](Cc1c[nH]c2ccccc12)NC(=O)[C@@H]1CCCN1C(C)=O)C(=O)N[C@H](C(=O)N(C)[C@@H](Cc1c[nH]c2ccccc12)C(=O)NCC(=O)N1CCC[C@H]1C(=O)N[C@H](C(=O)N[C@H](C(=O)N[C@@H](CO)C(=O)N[C@@H](CCCNC(=N)N)C(=O)N[C@@H](CCC(=O)O)C(=O)N[C@@H](CC(=O)O)C(N)=O)C(C)C)[C@@H](C)O)C(C)C [PWAIV(N-Me-W)GPTVSRED] (Ac-PWAIV[NMeW]GPTVSRED-NH2)
Ki (Table 9, Ala-, D-amino acids and N-methylation scans of PIANPWT, read-out: Ki (nM) mean ± SEM): 636 ± 6 nM

Molecule: CC[C@H](C)[C@H](NC(=O)[C@H](C)NC(=O)[C@H](Cc1c[nH]c2ccccc12)NC(=O)[C@@H]1CCCN1C(C)=O)C(=O)N[C@H](C(=O)N[C@@H](Cc1c[nH]c2ccccc12)C(=O)NCC(=O)N1CCC[C@H]1C(=O)N[C@H](C(=O)N[C@H](C(=O)N[C@@H](CO)C(=O)N[C@@H](CCCNC(=N)N)C(=O)N[C@@H](CCC(=O)O)C(=O)N[C@@H](CC(=O)O)C(=O)NCC(=O)NCC(=O)N[C@@H](CC(=O)O)C(=O)N1CCC[C@H]1C(N)=O)C(C)C)[C@@H](C)O)C(C)C (Ac-PWAIVWGPTVSREDGGDP-NH2)
Ki [3]: 597 ± 7 nM

Molecule: CC[C@H](C)[C@H](NC(=O)[C@H](Cc1ccccc1)NC(=O)[C@H](CCC(=O)O)NC(=O)[C@@H](NC(=O)[C@H](CCC(=O)O)NC(C)=O)[C@@H](C)O)C(=O)N[C@@H](C)C(=O)N[C@@H](Cc1c[nH]c2ccccc12)C(=O)NCC(=O)N1CCC[C@H]1C(=O)N[C@H](C(=O)NCC(=O)N[C@@H](CC(=O)O)C(=O)N[C@@H](CCC(=O)O)C(=O)N[C@@H](Cc1ccccc1)C(N)=O)[C@@H](C)O (Ac-ETEFIAWGPTGDEF-NH2)
Ki [2]: 48 ± 1 nM

Molecule: CC[C@H](C)[C@H](NC(=O)[C@H](Cc1ccccc1)NC(=O)[C@H](CCC(=O)O)NC(=O)[C@@H](NC(=O)[C@H](CCC(=O)O)NC(C)=O)[C@@H](C)O)C(=O)N[C@@H](C)C(=O)N[C@@H](Cc1c[nH]c2ccccc12)C(=O)NCC(=O)N1CCC[C@H]1C(=O)N[C@H](C(=O)NCC(=O)N(C)[C@@H](CC(=O)O)C(=O)N[C@@H](CCC(=O)O)C(=O)N[C@@H](CC(=O)O)C(N)=O)[C@@H](C)O (Ac-ETEFIAWGPTG[NMeD]ED-NH2)
Ki [4]: 45 ± 2 nM

Molecule: CC[C@H](C)[C@H](NC(=O)[C@H](Cc1ccccc1)NC(=O)[C@H](CCC(=O)O)NC(=O)[C@@H](NC(=O)[C@H](CCC(=O)O)NC(C)=O)[C@@H](C)O)C(=O)N[C@@H](C)C(=O)N[C@@H](Cc1c[nH]c2ccccc12)C(=O)NCC(=O)N1CCC[C@H]1C(=O)N[C@H](C(=O)NCC(=O)N[C@@H](CC(=O)O)C(=O)N[C@@H](CCC(=O)O)C(=O)N[C@@H](CC(=O)O)C(=O)N[C@@H](C)C(N)=O)[C@@H](C)O
Ki (Table 3, SPOT hit validation and previously reported peptides, read-out: Ki (nM) mean ± SEM): 39 ± 1 nM

Other lines, results leading:

Ki [1]: 814 ± 10 nM
Molecule: CC(=O)N[C@@H](CCC(=O)O)C(=O)N[C@@H](CC(=O)O)C(=O)N[C@@H](CC(=O)O)C(=O)N[C@@H](CO)C(=O)N[C@@H](CC(=O)O)C(=O)N[C@H](C(=O)N[C@@H](Cc1c[nH]c2ccccc12)C(=O)N[C@@H](Cc1ccc2ccccc2c1)C(=O)NCC(=O)NCC(=O)N[C@@H](C)C(=O)N[C@@H](CC(=O)O)C(=O)N[C@H](C(=O)N[C@@H](CC(=O)O)C(N)=O)[C@@H](C)O)C(C)C [EDDSDVW(2Nala)GGADTD] (Ac-EDDSDVW[2Nal]GGADTD-NH2)

Ki [1]: 113 ± 2 nM
Molecule: CCOc1ccc(C[C@H](NC(=O)[C@H](Cc2c[nH]c3ccccc23)NC(=O)[C@H](Cc2c[nH]c3ccccc23)NC(=O)[C@@H](NC(=O)[C@H](CC(=O)O)NC(=O)[C@H](CO)NC(=O)[C@H](CC(=O)O)NC(=O)[C@H](CC(=O)O)NC(=O)[C@H](CCC(=O)O)NC(C)=O)C(C)C)C(=O)NCC(=O)N[C@@H](C)C(=O)N[C@@H](CC(=O)O)C(=O)N[C@H](C(=O)N[C@@H](CC(=O)O)C(N)=O)[C@@H](C)O)cc1 (Ac-EDDSDVWWY(Et)GADTD-NH2)

Ki (Table 7, Ala-, D-amino acids and N-methylation scans of APPWT, read-out: Ki (nM) mean ± SEM): 653 ± 25 nM
Molecule: CC(=O)N[C@@H](CCC(=O)O)C(=O)N[C@@H](CC(=O)O)C(=O)N[C@@H](CC(=O)O)C(=O)N[C@@H](CO)C(=O)N[C@@H](CC(=O)O)C(=O)N[C@H](C(=O)N[C@@H](Cc1c[nH]c2ccccc12)C(=O)N[C@@H](Cc1c[nH]c2ccccc12)C(=O)NCC(=O)NCC(=O)N[C@@H](C)C(=O)N[C@@H](C)C(=O)N[C@H](C(=O)N[C@@H](CC(=O)O)C(N)=O)[C@@H](C)O)C(C)C (Ac-EDDSDVWWGGAATD-NH2)

Ki [2]: 30 ± 1 nM
Molecule: CC[C@H](C)[C@H](NC(=O)[C@H](Cc1ccccc1)NC(=O)[C@H](CCC(=O)O)NC(=O)[C@@H](NC(=O)[C@H](CCC(=O)O)NC(C)=O)[C@@H](C)O)C(=O)N[C@@H](C)C(=O)N[C@@H](Cc1c[nH]c2ccccc12)C(=O)NCC(=O)N1CCC[C@H]1C(=O)N[C@H](C(=O)N[C@@H](Cc1c[nH]cn1)C(=O)N[C@@H](CC(=O)O)C(=O)N[C@@H](CCC(=O)O)C(=O)N[C@@H](CC(=O)O)C(N)=O)[C@@H](C)O [ETEFIAWGPTHDED] (Ac-ETEFIAWGPTHDED-NH2)

Ki (Table 13, peptides for affinity maturation, read-out: Ki (nM) mean ± SEM): 201 ± 6 nM
Molecule: CC(=O)N[C@@H](CCC(=O)O)C(=O)N[C@@H](CC(=O)O)C(=O)N[C@@H](CC(=O)O)C(=O)N[C@@H](CO)C(=O)N[C@@H](CC(=O)O)C(=O)N[C@H](C(=O)N[C@@H](Cc1c[nH]c2ccccc12)C(=O)N[C@@H](Cc1c[nH]c2ccccc12)C(=O)N[C@@H](Cc1ccc(O)cc1)C(=O)N(C)CC(=O)N[C@@H](C)C(=O)N[C@@H](CC(=O)O)C(=O)N[C@H](C(=O)N[C@@H](CC(=O)O)C(N)=O)[C@@H](C)O)C(C)C (Ac-EDDSDVWWY[Sar]ADTD-NH2)

Ki (Table 10, deep mutational scanning validation variants of APPWT, read-out: Ki (nM) mean ± SEM): 204 ± 4 nM
Molecule: CC(=O)N[C@@H](CCC(=O)O)C(=O)N[C@@H](CC(=O)O)C(=O)N[C@@H](CC(=O)O)C(=O)N[C@@H](CO)C(=O)N[C@@H](CC(=O)O)C(=O)N[C@H](C(=O)N[C@@H](Cc1c[nH]c2ccccc12)C(=O)N[C@@H](Cc1c[nH]c2ccccc12)C(=O)NCC(=O)NCC(=O)N[C@@H](CO)C(=O)N[C@@H](CC(=O)O)C(=O)N[C@H](C(=O)N[C@@H](CC(=O)O)C(N)=O)[C@@H](C)O)C(C)C (Ac-EDDSDVWWGGSDTD-NH2)

Ki [4]: 291 ± 6 nM
Molecule: CC[C@H](C)[C@H](NC(=O)[C@H](Cc1ccccc1)NC(=O)[C@H](CCC(=O)O)NC(=O)[C@@H](NC(=O)[C@H](CCC(=O)O)NC(C)=O)[C@@H](C)O)C(=O)N[C@@H](C)C(=O)N[C@@H](Cc1c[nH]c2ccccc12)C(=O)NCC(=O)N[C@@H](C)C(=O)N[C@H](C(=O)NCC(=O)N[C@@H](CC(=O)O)C(=O)N[C@@H](CCC(=O)O)C(=O)N[C@@H](CC(=O)O)C(N)=O)[C@@H](C)O [ETEFIAWGATGDED] (Ac-ETEFIAWGATGDED-NH2)

Ki [2]: 39 ± 1 nM
Molecule: CC[C@H](C)[C@H](NC(=O)[C@H](Cc1ccccc1)NC(=O)[C@H](CCC(=O)O)NC(=O)[C@@H](NC(=O)[C@H](CCC(=O)O)NC(C)=O)[C@@H](C)O)C(=O)N[C@@H](C)C(=O)N[C@@H](Cc1c[nH]c2ccccc12)C(=O)NCC(=O)N1CCC[C@H]1C(=O)N[C@H](C(=O)NCC(=O)N[C@@H](CC(=O)O)C(=O)N[C@@H](CCC(=O)O)C(=O)N[C@@H](Cc1ccc(O)cc1)C(N)=O)[C@@H](C)O
